Values joined by “and” are separate entries in the source; they are usually repeats but may differ in a detail not shown here. Identical values can stand only once. Inconclusive results and toxic doses are left out.
Tested on: Lymphoma 4 ip in BDF1 mice, median survival
Test: NCI In Vivo Anticancer Drug Screen. Data for tumor model Lymphoma 4 (intraperitoneal) in B6D2F1 (BDF1) mice
Settings: endpoint: median survival time, schedule: Q01DX010 (ip), higher = longer survival
Procedure: The antitumor activity of compounds was measured in mice bearing transplantable tumors. Survival or tumor size were measured and the results are expressed as the measurement made in the treated group (T) divided by the measurement made in the vehicle treated control group (C). The tumor model used in this assay is Lymphoma 4 (intraperitoneal) in B6D2F1 (BDF1) mice

[1] = dose: 37.5 mg/kg/injection, vehicle: saline
[2] = dose: 75.0 mg/kg/injection, vehicle: saline
[3] = dose: 10.0 mg/kg/injection, vehicle: saline
[4] = dose: 6.0 mg/kg/injection, vehicle: saline
[5] = dose: 5.0 mg/kg/injection, vehicle: saline
[6] = dose: 20.0 mg/kg/injection, vehicle: saline
[7] = dose: 40.0 mg/kg/injection, vehicle: saline
[8] = dose: 0.5 mg/kg/injection, vehicle: saline
[9] = dose: 15.0 mg/kg/injection, vehicle: saline
[10] = dose: 30.0 mg/kg/injection, vehicle: saline
[11] = dose: 1.25 mg/kg/injection, vehicle: saline
[12] = dose: 0.25 mg/kg/injection, vehicle: saline
[13] = dose: 1.0 mg/kg/injection, vehicle: saline
[14] = dose: 2.0 mg/kg/injection, vehicle: saline
[15] = dose: 4.0 mg/kg/injection, vehicle: saline
[16] = dose: 8.0 mg/kg/injection, vehicle: saline
[17] = dose: 15.6 mg/kg/injection, vehicle: saline
[18] = dose: 16.0 mg/kg/injection, vehicle: saline
[19] = dose: 31.3 mg/kg/injection, vehicle: saline
[20] = dose: 62.5 mg/kg/injection, vehicle: saline
[21] = dose: 250.0 mg/kg/injection, vehicle: saline
[22] = dose: 500.0 mg/kg/injection, vehicle: saline
[23] = dose: 100.0 mg/kg/injection, vehicle: saline
[24] = dose: 200.0 mg/kg/injection, vehicle: saline
[25] = dose: 3.13 mg/kg/injection, vehicle: saline
[26] = dose: 6.25 mg/kg/injection, vehicle: saline
[27] = dose: 12.5 mg/kg/injection, vehicle: saline
[28] = dose: 25.0 mg/kg/injection, vehicle: saline
[29] = dose: 125.0 mg/kg/injection, vehicle: saline
[30] = dose: 50.0 mg/kg/injection, vehicle: saline

SMILES: CO[C@@H]1[C@@H](OC2OC(C)C(OC3CC(C)(O)C(OC(=O)CC(C)C)C(C)O3)C(N(C)C)C2O)[C@@H](CC=O)C[C@@H](C)C(=O)/C=C/C2O[C@H]2C[C@@H](C)OC(=O)C[C@H]1OC(C)=O (stereo partly specified)
- T/C [1]: 100 % of control and 107 % of control
- T/C [2]: 100 % of control and 111 % of control
- T/C (dose: 150.0 mg/kg/injection, vehicle: saline): 100 % of control and 118 % of control
- T/C (dose: 300.0 mg/kg/injection, vehicle: saline): 100 % of control and 111 % of control

SMILES: CC[n+]1c(-c2ccccc2)c2cc(N)ccc2c2ccc(N)cc21
- T/C [3]: 242 % of control

SMILES: S=P(N1CC1)(N1CC1)N1CC1
- T/C (dose: 0.05 mg/kg/injection, vehicle: saline): 106 % of control
- T/C (dose: 0.75 mg/kg/injection, vehicle: saline): 110 % of control
- T/C (dose: 1.5 mg/kg/injection, vehicle: saline): 117 % of control and 123 % of control
- T/C [4]: 114 % of control

SMILES: O=c1[nH]cc(F)c(=O)[nH]1
- T/C [5]: 161 % of control
- T/C [3]: 179 % of control and 180 % of control
- T/C [6]: 193 % of control and 246 % of control

SMILES: OCC1OC(n2cnc3c(=S)nc[nH]c32)C(O)C1O (stereo unspecified)
- T/C [6]: 96 % of control and 105 % of control
- T/C [7]: 106 % of control and 111 % of control
- T/C (dose: 80.0 mg/kg/injection, vehicle: saline): 100 % of control and 109 % of control
- T/C (dose: 160.0 mg/kg/injection, vehicle: saline): 100 % of control and 105 % of control

SMILES: CC[C@]1(O)C[C@H]2CN(CCc3c([nH]c4ccccc34)[C@@](C(=O)OC)(c3cc4c(cc3OC)N(C=O)[C@H]3[C@@](O)(C(=O)OC)[C@H](OC(C)=O)[C@]5(CC)C=CCN6CC[C@]43[C@@H]65)C2)C1
- T/C (dose: 0.03 mg/kg/injection, vehicle: saline): 104 % of control and 121 % of control
- T/C (dose: 0.06 mg/kg/injection, vehicle: saline): 108 % of control
- T/C (dose: 0.12 mg/kg/injection, vehicle: saline): 158 % of control
- T/C [8]: 104 % of control

SMILES: CN(C)[C@@H]1C(=O)C(C(N)=O)=C(O)[C@@]2(O)C(=O)C3=C(O)c4c(O)cccc4C[C@H]3C[C@@H]12
- T/C (dose: 3.75 mg/kg/injection, vehicle: saline): 114 % of control
- T/C (dose: 7.5 mg/kg/injection, vehicle: saline): 107 % of control and 111 % of control
- T/C [9]: 107 % of control
- T/C [10]: 100 % of control and 107 % of control

SMILES: N#[N+]c1cnc([O-])[nH]c1=O
- T/C [11]: 113 % of control
- T/C [5]: 150 % of control
- T/C [3]: 176 % of control

SMILES: Nc1nc2n[nH]nc2c(=O)[nH]1
- T/C (dose: 25.0 mg/kg/injection, vehicle: alkali diluted with saline): 106 % of control
- T/C (dose: 50.0 mg/kg/injection, vehicle: alkali diluted with saline): 120 % of control
- T/C (dose: 200.0 mg/kg/injection, vehicle: alkali diluted with saline): 90 % of control

SMILES: Nc1nc(F)nc2c1ncn2C1OC(CO)C(O)C1O (stereo unspecified)
- T/C [12]: 100 % of control
- T/C [8]: 107 % of control and 114 % of control
- T/C [13]: 92 % of control and 103 % of control
- T/C [14]: 107 % of control
- T/C [15]: 96 % of control

SMILES: CCn1cnc2c(=S)nc[nH]c21
- T/C [15]: 96 % of control
- T/C [16]: 100 % of control
- T/C [17]: 93 % of control and 106 % of control
- T/C [18]: 96 % of control
- T/C [19]: 103 % of control
- T/C (dose: 32.0 mg/kg/injection, vehicle: saline): 96 % of control and 100 % of control
- T/C [20]: 100 % of control

SMILES: Oc1cc(CN(CCCl)CCCl)c(O)cc1CN(CCCl)CCCl
- T/C (dose: 0.63 mg/kg/injection, vehicle: saline): 113 % of control and 120 % of control
- T/C [11]: 106 % of control and 116 % of control

SMILES: CC(=O)N(C)C
- T/C [20]: 87 % of control
- T/C [21]: 88 % of control
- T/C [22]: 100 % of control

SMILES: CS(=O)(=O)OCCC(=O)N1CCN(C(=O)CCOS(C)(=O)=O)CC1
- T/C [23]: 237 % of control
- T/C [24]: 303 % of control

SMILES: Nc1nc(N)c2nc(CNc3ccc(C(=O)NC(CCC(=O)O)C(=O)O)cc3)cnc2n1 (stereo unspecified)
- T/C (dose: 0.05 mg/kg/injection, vehicle: other): 96 % of control and 110 % of control
- T/C (dose: 0.1 mg/kg/injection, vehicle: other): 110 % of control and 114 % of control
- T/C (dose: 0.2 mg/kg/injection, vehicle: other): 116 % of control and 117 % of control

SMILES: O=[n+]1c2c(n([O-])c3ccccc31)-c1cccc3cccc-2c13
- T/C [25]: 107 % of control
- T/C [26]: 107 % of control
- T/C [27]: 115 % of control
- T/C [28]: 100 % of control

SMILES: CCCNc1ncnc2[nH]ncc12
- T/C [25]: 109 % of control and 111 % of control
- T/C [26]: 103 % of control and 123 % of control
- T/C [27]: 103 % of control and 117 % of control
- T/C [28]: 91 % of control and 109 % of control

SMILES: COc1ccc2c(c1OC)C(=O)O[C@@H]2[C@H]1c2c(cc3c(c2OC)OCO3)CCN1C
- T/C [17]: 107 % of control
- T/C [19]: 106 % of control and 107 % of control
- T/C [20]: 96 % of control and 107 % of control
- T/C [29]: 93 % of control and 96 % of control
- T/C [21]: 93 % of control

SMILES: C1CN1c1nc(N2CC2)nc(N2CC2)n1
- T/C (dose: 0.13 mg/kg/injection, vehicle: saline): 94 % of control and 105 % of control
- T/C [12]: 100 % of control and 102 % of control
- T/C [8]: 108 % of control
- T/C [13]: 97 % of control

SMILES: O=c1[nH]c(=O)n(C2CC(O)C(CO)O2)cc1F (stereo unspecified)
- T/C [3]: 103 % of control
- T/C [6]: 116 % of control and 123 % of control
- T/C [7]: 119 % of control

SMILES: OCC1OC(n2cnc3c(Cl)ncnc32)C(O)C1O (stereo unspecified)
- T/C [20]: 100 % of control and 103 % of control
- T/C [29]: 94 % of control and 103 % of control
- T/C [21]: 94 % of control and 106 % of control
- T/C [22]: 94 % of control and 100 % of control

SMILES: N#CCSc1ncnc2nc[nH]c12
- T/C [9]: 103 % of control
- T/C [10]: 100 % of control and 107 % of control
- T/C (dose: 60.0 mg/kg/injection, vehicle: saline): 100 % of control and 107 % of control
- T/C (dose: 120.0 mg/kg/injection, vehicle: saline): 107 % of control

SMILES: O=C(Nc1ccc(C2=NCCN2)cc1)c1ccc(C(=O)Nc2ccc(C3=NCCN3)cc2)c([N+](=O)[O-])c1
- T/C [4]: 157 % of control
- T/C [16]: 189 % of control and 278 % of control
- T/C (dose: 12.0 mg/kg/injection, vehicle: saline): 185 % of control and 300 % of control
- T/C (dose: 18.0 mg/kg/injection, vehicle: saline): 96 % of control and 121 % of control

SMILES: O=C(Nc1ccc(NC2=NCCN2)cc1)c1ccc(C(=O)Nc2ccc(NC3=NCCN3)cc2)cc1
- T/C [14]: 113 % of control and 121 % of control
- T/C [16]: 207 % of control
- T/C [18]: 96 % of control

SMILES: OC(CBr)C(O)C(O)C(O)CBr (stereo unspecified)
- T/C [28]: 115 % of control
- T/C [30]: 115 % of control
- T/C [24]: 115 % of control

SMILES: CS(=O)(=O)OCCCl
- T/C (dose: 9.4 mg/kg/injection, vehicle: saline): 100 % of control
- T/C (dose: 18.8 mg/kg/injection, vehicle: saline): 100 % of control and 103 % of control
- T/C [1]: 100 % of control and 106 % of control
- T/C [2]: 96 % of control and 103 % of control

SMILES: C#CCN(C)Cc1ccccc1
- T/C [28]: 93 % of control
- T/C [30]: 93 % of control
- T/C [23]: 96 % of control
- T/C [24]: 96 % of control

SMILES: CCCCNc1ncnc2c1cnn2C
- T/C [17]: 103 % of control and 108 % of control
- T/C [19]: 102 % of control and 103 % of control
- T/C [20]: 100 % of control and 123 % of control

SMILES: CC(=O)NC1=C(N2CC2)C(=O)C(NC(C)=O)=C(N2CC2)C1=O
- T/C [12]: 121 % of control
- T/C [13]: 175 % of control
- T/C [14]: 164 % of control

SMILES: COc1cc(-c2ccc(Nc3ccccc3C(=O)O)c(OC)c2)ccc1N
- T/C [3]: 119 % of control

SMILES: CC(CCC(C)OS(C)(=O)=O)OS(C)(=O)=O (stereo unspecified)
- T/C [14]: 103 % of control
- T/C [15]: 103 % of control and 107 % of control
- T/C [16]: 96 % of control and 100 % of control
- T/C [18]: 107 % of control and 113 % of control

SMILES: CCCSc1ncnc2nc[nH]c12
- T/C [19]: 93 % of control and 96 % of control
- T/C [29]: 93 % of control and 96 % of control

Source: PubChem BioAssay AID240 (DTP/NCI, 2004)
